These results are taken from patent publication US8637523B2, “Compounds for the reduction of beta-amyloid production” (Bristol-Myers Squibb Company, priority 2010, dated 2014).

One assay concerns Aβ42. Briefly: Cellular assay for inhibition of Aβ1-42 production (H4 APP751 SWE clone 8.20). The following applies: 19 h, H4 APP751 SWE clone 8.20 cells, 19 h incubation; read-out: Activity Rating (Aβ42 cellular IC50), class symbol. It counts as cell-based. Summed up: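 Cells incubate with compound for 19 h (37 °C, 5% CO2), the plate is briefly spun, and antibody mix is added straight to the wells: Wallac-conjugated 565 against the Aβ42 C-terminal neoepitope and APC-conjugated 26D6 against the Aβ N-terminus. After overnight sealing at 4 °C, signal is counted and IC50 fitted.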
One may read the IC50 as the concentration needed to halve the response being measured. As to `Cc1ncn(-c2ccc3cc2OCCN(C)CCNc2nc(nc4c2CCC4c2ccc(F)cc2)N3)n1` (stereo not drawn) [Example 56B, 19-(4-fluorophenyl)-12-methyl-7-(3-methyl-1H-1,2,4-triazol-1-yl)-11,12,13,14,15,17,18,19-octahydro-10H-16,2-(azeno)-8,4-(metheno)cyclopenta[i][1,4,7,11,13]oxatetraazacyclooctadecine], the IC50 was 10 to 100 nM.
As to `Cc1ncn(-c2ccc3cc2OC/C=C\CN(C)c2nc(nc4c2CCC4c2ccc(F)cc2F)N3)n1` (stereo not drawn) [Example 57B, (11Z)-18-(2,4-difluorophenyl)-14-methyl-7-(3-methyl-1H-1,2,4-triazol-1-yl)-10,13,14,16,17,18-hexahydro-15,2-(azeno)-8,4-(metheno)cyclopenta[h][1,6,10,12]oxatriazacycloheptadecine], the IC50 is 10 to 100 nM.
Take `Cc1ncn(-c2ccc3cc2OCCCN(C)c2nc(nc4c2CCC4c2ccccc2)N3)n1` (stereo not drawn) [Example 60B, 13-methyl-7-(3-methyl-1H-1,2,4-triazol-1-yl)-17-phenyl-11,12,13,15,16,17-hexahydro-10H-14,2-(azeno)-8,4-(metheno)cyclopenta[g][1,5,9,11]oxatriazacyclohexadecine]: the IC50 was in the range of 10 to 100 nM.
With `Cc1ncn(-c2ccc3cc2OCCCCN(C)c2nc(nc4c2CCC4c2ccc(F)cc2F)N3)n1` (stereo not drawn) [Example 61B, 18-(2,4-difluorophenyl)-14-methyl-7-(3-methyl-1H-1,2,4-triazol-1-yl)-10,11,12,13,14,16,17,18-octahydro-15,2-(azeno)-8,4-(metheno)cyclopenta[h][1,6,10,12]oxatriazacycloheptadecine], the IC50 lay within 10 to 100 nM.
On to `Cc1ncn(-c2ccc3cc2OCCCCCc2nc(nc4c2CCC4c2ccccc2)N3)n1` (stereo not drawn) [Example 62A, 7-(3-methyl-1H-1,2,4-triazol-1-yl)-18-phenyl-10,11,12,13,14,16,17,18-octahydro-15,2-(azeno)-8,4-(metheno)cyclopenta[h][1,10,12]oxadiazacycloheptadecine], for which the IC50 was under 10 nM.
Take `Cc1ncn(-c2ccc3cc2OCCCNc2nc(nc4c2CCC4c2ccc(F)cc2F)N3)n1` (stereo not drawn) [Example 63A, 17-(2,4-difluorophenyl)-7-(3-methyl-1H-1,2,4-triazol-1-yl)-11,12,13,15,16,17-hexahydro-10H-14,2-(azeno)-8,4-(metheno)cyclopenta[g][1,5,9,11]oxatriazacyclohexadecine]: the IC50 is under 10 nM.
Consider `Cc1ncn(-c2ccc3cc2OCCCCNc2nc(nc4c2CCC4c2ccc(F)cc2F)N3)n1` (stereo not drawn) [Example 64B, 18-(2,4-difluorophenyl)-7-(3-methyl-1H-1,2,4-triazol-1-yl)-10,11,12,13,14,16,17,18-octahydro-15,2-(azeno)-8,4-(metheno)cyclopenta[h][1,6,10,12]oxatriazacycloheptadecine], for which the half-inhibitory concentration (IC50) lay within 10 to 100 nM.
As for `Cc1ncn(-c2ccc3cc2OCCCN(C)c2nc(nc4c2CCC4c2ccc(F)cc2)N3)n1` (stereo not drawn) [Example 65B, 13-methyl-7-(3-methyl-1H-1,2,4-triazol-1-yl)-17-(4-fluorophenyl)-11,12,13,15,16,17-hexahydro-10H-14,2-(azeno)-8,4-(metheno)cyclopenta[g][1,5,9,11]oxatriazacyclohexadecine], the IC50 fell in the range of 10 to 100 nM.

The assay is the same for the next values; noted with them: 19 h, H4 APP751 SWE clone 8.20 cells, 19 h incubation; unit inferred; read-out: Activity Rating (Aβ42 cellular IC50), numeric value.
Turning to `Cc1ncn(-c2ccc3cc2OC/C=C\CN(C)c2nc(nc4c2CCC4c2ccc(F)cc2F)N3)n1` (stereo not drawn) [Example 57A, (11Z)-18-(2,4-difluorophenyl)-14-methyl-7-(3-methyl-1H-1,2,4-triazol-1-yl)-10,13,14,16,17,18-hexahydro-15,2-(azeno)-8,4-(metheno)cyclopenta[h][1,6,10,12]oxatriazacycloheptadecine], the IC50 came out at 5.5 nM.
Consider `Cc1ncn(-c2ccc3cc2OCCCCN(C)c2nc(nc4c2CCC4c2ccc(F)cc2F)N3)n1` (stereo not drawn) [Example 61A, 18-(2,4-difluorophenyl)-14-methyl-7-(3-methyl-1H-1,2,4-triazol-1-yl)-10,11,12,13,14,16,17,18-octahydro-15,2-(azeno)-8,4-(metheno)cyclopenta[h][1,6,10,12]oxatriazacycloheptadecine], for which the IC50 was determined as 4.1 nM.
Take `Cc1ncn(-c2ccc3cc2OCCCCCc2nc(nc4c2CCC4c2ccccc2)N3)n1` (stereo not drawn) [Example 62B, 7-(3-methyl-1H-1,2,4-triazol-1-yl)-18-phenyl-10,11,12,13,14,16,17,18-octahydro-15,2-(azeno)-8,4-(metheno)cyclopenta[h][1,10,12]oxadiazacycloheptadecine]: the IC50 amounted to 22 nM.
In the case of `Cc1ncn(-c2ccc3cc2OCCCNc2nc(nc4c2CCC4c2ccc(F)cc2F)N3)n1` (stereo not drawn) [Example 63B, 17-(2,4-difluorophenyl)-7-(3-methyl-1H-1,2,4-triazol-1-yl)-11,12,13,15,16,17-hexahydro-10H-14,2-(azeno)-8,4-(metheno)cyclopenta[g][1,5,9,11]oxatriazacyclohexadecine], the half-maximal inhibitory concentration (IC50) is 25 nM.
The same measure, in the same setting: then `Cc1ncn(-c2ccc3cc2OCCCCNc2nc(nc4c2CCC4c2ccc(F)cc2F)N3)n1` (stereo not drawn) [Example 64A, 18-(2,4-difluorophenyl)-7-(3-methyl-1H-1,2,4-triazol-1-yl)-10,11,12,13,14,16,17,18-octahydro-15,2-(azeno)-8,4-(metheno)cyclopenta[h][1,6,10,12]oxatriazacycloheptadecine], with 5.3 nM.

The same assay, now with this note: H4 APP751 SWE clone 8.20 cells, 19 h incubation; read-out: Activity Rating (Aβ42 cellular IC50), class symbol.
For `Cc1ncnn1-c1ccc2cc1OCC=CCNc1nc(nc3c1CCC3c1ccc(F)cc1F)N2` (stereo not drawn) [Example 54A, (11E)-18-(2,4-difluorophenyl)-7-(5-methyl-1H-1,2,4-triazol-1-yl)-10,13,14,16,17,18-hexahydro-15,2-(azeno)-8,4-(metheno)cyclopenta[h][1,6,10,12]oxatriazacycloheptadecine], the IC50 is under 10 nM.
The same measure, in the same setting: then `Cc1ncnn1-c1ccc2cc1OCC=CCNc1nc(nc3c1CCC3c1ccc(F)cc1F)N2` (stereo not drawn) [Example 54B, (11E)-18-(2,4-difluorophenyl)-7-(5-methyl-1H-1,2,4-triazol-1-yl)-10,13,14,16,17,18-hexahydro-15,2-(azeno)-8,4-(metheno)cyclopenta[h][1,6,10,12]oxatriazacycloheptadecine], with 10 to 100 nM; and `Cc1ncn(-c2ccc3cc2OCC=CCCc2nc(nc4c2CCC4c2ccccc2)N3)n1` (stereo not drawn) [Example 59A, (11E)-7-(3-methyl-1H-1,2,4-triazol-1-yl)-18-phenyl-10,13,14,16,17,18-hexahydro-15,2-(azeno)-8,4-(metheno)cyclopenta[h][1,10,12]oxadiazacycloheptadecine], with under 10 nM; and “(11E)-7-(3-methyl-1H-1,2,4-triazol-1-yl)-18-phenyl-10,13,14,16,17,18-hexahydro-15,2-(azeno)-8,4-(metheno)cyclopenta[h][1,6,10,12]oxatriazacycloheptadecine [Example 40A]”, with under 10 nM.
Regarding “(11E)-7-(4-chloro-1H-imidazol-1-yl)-18-phenyl-10,13,14,16,17,18-hexahydro-15,2-(azeno)-8,4-(metheno)cyclopenta[h][1,6,10,12]oxatriazacycloheptadecine [Example 2A]”, the IC50 lay in the range of 10 to 100 nM.
As to “(11E)-7-cyano-18-(2,4-difluorophenyl)-10,13,14,16,17,18-hexahydro-15,2-(azeno)-8,4-(metheno)cyclopenta[h][1,6,10,12]oxatriazacycloheptadecine [Example 25A]”, the IC50 was 10 to 100 nM.
Same read-out and setting: then “(11Z)-7-(3-methyl-1H-1,2,4-triazol-1-yl)-18-phenyl-10,13,14,16,17,18-hexahydro-15,2-(azeno)-8,4-(metheno)cyclopenta[h][1,10,12]oxadiazacycloheptadecine [Example 58A]”, with under 10 nM.

The assay is the same for the next values; noted with them: H4 APP751 SWE clone 8.20 cells, 19 h incubation; unit inferred; read-out: Activity Rating (Aβ42 cellular IC50), numeric value.
Take `Cc1ncn(-c2ccc3cc2OCC=CCCc2nc(nc4c2CCC4c2ccccc2)N3)n1` (stereo not drawn) [Example 59B, (11E)-7-(3-methyl-1H-1,2,4-triazol-1-yl)-18-phenyl-10,13,14,16,17,18-hexahydro-15,2-(azeno)-8,4-(metheno)cyclopenta[h][1,10,12]oxadiazacycloheptadecine]: the IC50 came out at 32 nM.
Still for that read-out and setting: the value for `CC1(c2ccc(F)cc2)CCc2c3nc(nc21)Nc1ccc(C#N)c(c1)OC/C=C\CN3` (stereo not drawn) [Example 68, (11E)-7-cyano-18-(4-fluorophenyl)-18-methyl-10,13,14,16,17,18-hexahydro-15,2-(azeno)-8,4-(metheno)cyclopenta[h][1,6,10,12]oxatriazacycloheptadecine] was 160 nM; that for `CC1(c2ccc(F)cc2)CCc2c3nc(nc21)Nc1ccc(C#N)c(c1)OC/C=C\CN3` (stereo not drawn) [Example 69, (11Z)-7-cyano-18-(4-fluorophenyl)-18-methyl-10,13,14,16,17,18-hexahydro-15,2-(azeno)-8,4-(metheno)cyclopenta[h][1,6,10,12]oxatriazacycloheptadecine] was 120 nM.
For “(11E)-7-(3-methyl-1H-1,2,4-triazol-1-yl)-18-phenyl-10,13,14,16,17,18-hexahydro-15,2-(azeno)-8,4-(metheno)cyclopenta[h][1,6,10,12]oxatriazacycloheptadecine [Example 40B]”, the IC50 is 25 nM.
As for “(11E)-7-(4-chloro-1H-imidazol-1-yl)-18-phenyl-10,13,14,16,17,18-hexahydro-15,2-(azeno)-8,4-(metheno)cyclopenta[h][1,6,10,12]oxatriazacycloheptadecine [Example 2B]”, the half-maximal inhibitory concentration (IC50) was 15 nM.
On to “(11E)-7-cyano-18-(2,4-difluorophenyl)-10,13,14,16,17,18-hexahydro-15,2-(azeno)-8,4-(metheno)cyclopenta[h][1,6,10,12]oxatriazacycloheptadecine [Example 25B]”, for which the IC50 turned out to be 53 nM.
Consider “(11Z)-7-(3-methyl-1H-1,2,4-triazol-1-yl)-18-phenyl-10,13,14,16,17,18-hexahydro-15,2-(azeno)-8,4-(metheno)cyclopenta[h][1,10,12]oxadiazacycloheptadecine [Example 58B]”, for which the IC50 came out at 24 nM.
